# Reference: PMC12064818, “A general assay platform to study protein pharmacology using ligand-dependent structural dynamics” (Nature Communications, 2025)
# Molecular target: T1, FLuc-C-HiBiT (Photinus pyralis, UniProt P08659)
# T1 construct: firefly luciferase with C-terminal HiBiT tag, E. coli expressed
# Assay: biochemical
# Conditions: enzyme activity, 10 uM ATP; read-out: IC50 or SDR50 (mM) / FLuc E
# T1 sequence (P08659 whole entry, looked up): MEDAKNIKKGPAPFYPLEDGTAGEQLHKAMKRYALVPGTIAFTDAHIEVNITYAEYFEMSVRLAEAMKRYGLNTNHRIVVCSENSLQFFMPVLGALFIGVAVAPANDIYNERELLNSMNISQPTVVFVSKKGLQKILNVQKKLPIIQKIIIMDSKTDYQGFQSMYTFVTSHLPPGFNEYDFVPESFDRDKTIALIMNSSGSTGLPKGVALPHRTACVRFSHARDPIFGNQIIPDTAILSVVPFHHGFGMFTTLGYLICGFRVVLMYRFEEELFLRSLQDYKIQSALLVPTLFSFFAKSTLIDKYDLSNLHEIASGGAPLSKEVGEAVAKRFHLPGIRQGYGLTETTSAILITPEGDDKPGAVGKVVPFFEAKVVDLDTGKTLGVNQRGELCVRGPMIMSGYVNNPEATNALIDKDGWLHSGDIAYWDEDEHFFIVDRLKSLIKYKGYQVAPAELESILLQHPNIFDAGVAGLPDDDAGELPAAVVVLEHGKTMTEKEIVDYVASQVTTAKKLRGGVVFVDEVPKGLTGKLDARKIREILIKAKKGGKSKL
row,Structure (SMILES),IC50 [mM]
1,CCn1cc(-c2cc3c(cn2)CN(C)CCN3)cn1 [NCGC00411244-01],0.0226
2,c1cncc(Nc2cc3c(cn2)CN(Cc2c[nH]cn2)CCN3)c1 [NCGC00411246-03],> 0.03
3,COc1ccc(-c2cc3c(cn2)CN(C)CCN3)cn1 [NCGC00411253-01],0.0226
4,CCCN1CCNc2cc(Nc3ccccc3)ncc2C1 [NCGC00411254-01],0.0254
5,CC(C)(C)CN1CCNc2cc(Nc3cccnc3)ncc2C1 [NCGC00411255-01],0.0064
6,Fc1ccc(-c2cc3c(cn2)CN(Cc2ccncc2)CCN3)cc1Cl [NCGC00411256-01],0.018
7,CC(C)(C)CN1CCNc2cc(Nc3ccccc3)ncc2C1 [NCGC00411260-01],0.00718
8,CN1CCNc2cc(Nc3ccc(F)cc3)ncc2C1 [NCGC00411261-01],0.0202
9,CN1CCNc2cc(Nc3ccc(F)c(Cl)c3)ncc2C1 [NCGC00411263-01],0.0128
10,Cn1ccc2c(C(=O)NCCc3c[nH]cn3)nc(-c3ccc(N4CCOCC4)cc3)cc21 [NCGC00411589-01],0.00453
11,CN1CCN(c2ccc(-c3cc4c(ccn4C)c(C(=O)NCCN4CCNC4=O)n3)cc2)CC1 [NCGC00411611-01],0.0124
12,Cn1ccc2c(C(=O)NCc3cccnc3)nc(-c3ccc(N4CCOCC4)cc3)cc21 [NCGC00411612-01],0.018
13,CN1CCN(c2ccc(-c3cc4c(ccn4C)c(C(=O)NCCc4ccccn4)n3)cc2)CC1 [NCGC00411712-01],0.00279
14,CN1CCN(c2ccc(-c3cc4c(ccn4C)c(C(=O)NCC4CCC(=O)N4)n3)cc2)CC1 (stereo not shown) [NCGC00411731-01],0.0157
15,CN1CCN(c2ccc(-c3cc4c(ccn4C)c(C(=O)NCCC(N)=O)n3)cc2)CC1 [NCGC00411733-01],0.0143
16,OC(c1nc(Nc2ccc(Oc3ccccc3)cc2)n[nH]1)C1CC1 (stereo not shown) [NCGC00411906-01],0.0202
17,COc1ccc(-c2cnc3[nH]cc(CC(=O)N4CCN(c5ccccn5)CC4)c3c2)cc1 [NCGC00412443-01],0.018
18,Fc1cc(Nc2cnc3ccc(-c4ccccc4)nn23)cc(N2CCOCC2)c1 [NCGC00412489-01],0.0161

row,Structure (SMILES),IC50 [mM]
1,COc1ccc(-c2ccc3ncc(Nc4cc(F)cc(N5CCOCC5)c4)n3n2)cc1OC [NCGC00412497-01],0.0111
2,COc1ccc(-c2cnc(Nc3ccccc3)c3c2CCO3)cn1 [NCGC00412779-01],0.018
3,Cc1ccc(CN2CCc3nc(C(=O)Nc4ccccc4)oc3CC2)cc1 [NCGC00413255-01],0.0161
4,O=C(Nc1ccccc1)c1nc2c(o1)CCN(Cc1cccnc1)CC2 [NCGC00413263-01],0.0057
5,Cc1csc(NC(=O)c2nc3c(o2)CCN(Cc2ccccc2F)CC3)n1 [NCGC00413264-01],0.0128
6,O=C(Nc1cccnc1)c1nc2c(o1)CCN(Cc1nccs1)CC2 [NCGC00413267-01],0.0202
7,O=C(Nc1ccccc1)c1nc2c(o1)CCN(Cc1ccccc1)CC2 [NCGC00413286-01],0.00453
8,O=C(Nc1ccccc1)c1nc2c(o1)CCN(Cc1ccc(F)cc1)CC2 [NCGC00413289-01],0.018
9,COc1ccccc1CN1CCc2nc(C(=O)Nc3ccccc3)oc2CC1 [NCGC00413298-01],0.0161
10,Cn1cc(CN2CCc3nc(C(=O)Nc4ccccc4)oc3CC2)cn1 [NCGC00413305-01],0.018
11,COc1cccc(CN2CCc3nc(C(=O)Nc4nc(C)cs4)oc3CC2)c1 [NCGC00413306-01],0.018
12,CCCN1CCc2nc(C(=O)Nc3ccccc3)oc2CC1 [NCGC00413331-01],0.018
13,Cn1ccnc1CN1CCc2nc(C(=O)Nc3ccccc3)oc2CC1 [NCGC00413360-01],0.0202
14,Cc1noc(C)c1CN1CCc2nc(C(=O)Nc3ccccc3)oc2CC1 [NCGC00413386-01],> 0.03
15,O=C(Nc1ccccc1)c1nc2c(o1)CCN(Cc1cccc(Cl)c1)CC2 [NCGC00413390-01],0.0101
16,O=C(Nc1ccccc1)c1nc2c(o1)CCN(Cc1ccccn1)CC2 [NCGC00413398-01],0.018
17,O=C(Nc1ccccc1)c1nc2c(o1)CCN(Cc1ccc(O)cc1)CC2 [NCGC00413411-01],0.00508
18,O=C(Nc1cccnc1)c1nc2c(o1)CCN(Cc1ccc(O)cc1)CC2 [NCGC00413415-01],0.018

# Results, then the compound that gave them:
row,IC50 [mM],Structure (SMILES)
1,0.018,CC(=O)N1CCNc2cc(-c3cccc(N4CCOCC4)c3)ncc2C1 [NCGC00411247-01]
2,0.0254,CC(=O)N1CCNc2cc(-c3cccc(F)c3)ncc2C1 [NCGC00411252-01]
3,0.018,COc1ccc(-c2cnc(Nc3cccc(N[S+](C)(=O)[O-])c3)c3c2CCO3)cn1 [NCGC00412697-01]
4,0.00321,CNC(=O)c1cccc(-c2cnc(NC(=O)Cc3ccccc3)c3c2CCO3)c1 [NCGC00412711-01]
5,0.0161,Fc1cccc(-c2cnc(Nc3ccc(N4CCOCC4)cc3)c3c2CCO3)c1 [NCGC00412721-01]
6,0.0202,CNC(=O)c1cccc(-c2cnc(NC(=O)c3cn(C)cn3)c3c2CCO3)c1 [NCGC00412729-01]
7,0.018,COc1cccc(Nc2ncc(-c3cccnc3)c3c2OCC3)c1 [NCGC00412731-01]
8,0.018,Clc1ccc(Nc2ncc(-c3cccnc3)c3c2OCC3)cc1 [NCGC00412736-01]
9,0.00508,CNC(=O)c1cccc(-c2cnc(Nc3cccnc3OC)c3c2CCO3)c1 [NCGC00412753-01]
10,0.0114,Fc1ccc(Nc2ncc(-c3cccnc3)c3c2OCC3)cc1 [NCGC00412761-01]
11,0.018,CNC(=O)c1cccc(-c2cnc(Nc3ccccc3)c3c2CCO3)c1 [NCGC00412768-01]
12,0.0161,c1ccc(-c2cnc(Nc3ccc4c(c3)OCCO4)c3c2CCO3)cc1 [NCGC00412769-01]
13,0.018,O=C(Nc1ncc(-c2ccccc2)c2c1OCC2)c1ccccc1 [NCGC00412770-01]
14,0.0202,COc1cccc(Nc2ncc(-c3ccc(OC)nc3)c3c2OCC3)c1 [NCGC00412784-01]
15,0.0101,CNC(=O)c1cccc(-c2cnc(Nc3ccc(Cl)cn3)c3c2CCO3)c1 [NCGC00412786-01]
16,0.0202,CNC(=O)c1cccc(-c2cnc(NC(=O)c3ccncc3)c3c2CCO3)c1 [NCGC00412795-01]
17,0.0226,c1ccc(Nc2ncc(-c3cccnc3)c3c2OCC3)cc1 [NCGC00412806-01]
18,0.0161,COCCNc1ncc(-c2cccc(NC(C)=O)c2)c2c1OCC2 [NCGC00412815-01]
19,0.0143,Cn1cc(-c2cnc(Nc3ccc(N4CCOCC4)cc3)c3c2CCO3)cn1 [NCGC00412818-01]
20,0.0143,Cc1csc(NC(=O)c2nc3c(o2)CCN(Cc2cccc(F)c2)CC3)n1 [NCGC00413280-01]
21,0.0161,O=C(Nc1ccccc1)c1nc2c(o1)CCN(CC1CC1)CC2 [NCGC00413351-01]
22,0.0202,O=C(Nc1cccnc1)c1nc2c(o1)CCN(Cc1cccc(O)c1)CC2 [NCGC00413425-01]
23,0.018,COc1ccc(-c2ncc3c(n2)OCCN(C)C3=O)cc1F [NCGC00413447-01]
24,0.0202,O=C1c2cnc(-c3cccc(CO)c3)nc2OCCN1c1cccc(C(F)(F)F)c1 [NCGC00413455-01]
25,0.018,COCCN1CCOc2nc(-c3cccc(N(C)C)c3)ncc2C1=O [NCGC00413458-01]
26,0.00404,O=C1c2cnc(-c3ccc(Cl)cc3)nc2OCCN1CC1CC1 [NCGC00413489-01]
27,0.00904,O=C1c2cnc(-c3cccc(C(F)(F)F)c3)nc2OCCN1CC1CC1 [NCGC00413514-01]
28,0.0161,O=C1c2cnc(-c3ccccc3)nc2OCCN1CC1CC1 [NCGC00413518-01]
